Reference: paper PMC8728736, “A Reactivity-Based ^18F-Labeled Probe for PET Imaging of Oxidative Stress in Chemotherapy-Induced Cardiotoxicity” (Molecular Pharmaceutics, 2021)
Where “and” joins values, the source holds several entries; their conditions need not be identical. Equal values may be shown once.

Key:
[1] = Rat model of doxorubicin-induced cardiotoxicity: body weight and echocardiography; format: in vivo, Wistar rats; conditions: rats
Procedure: (§1) Male Wistar rats (280–300 g) were used in all experiments. Subcutaneous 7 day osmotic pumps (Alzet), containing either doxorubicin (Cambridge Bioscience, 30 mg/kg cumulative dose) or vehicle (sterile 0.9% NaCl), were inserted into rats under 2% isoflurane in 100% oxygen.
In order to assess cardiac function, all rats were subjected to a cardiac ultrasound (Vevo 770TM, VisualSonics) 1 day prior to and on day 6 of osmotic pump implantation. Rats were anesthetized with 2% isoflurane in 100% oxygen and maintained at 37 °C via a homeothermic platform and rectal thermometer. High-resolution parasternal left ventricle (LV) long axis M-mode and B-mode images were obtained using an RMV710B transducer. Images were analyzed offline using Vevo Software to determine LV function. Data are reported as mean ± SD. Statistical analysis was performed using one-way ANOVA with Tukey’s multiple comparisons test.

[2] = Ex vivo heart biomarkers of oxidative stress; format: in vivo, Wistar rats; conditions: hearts harvested after PET imaging, n = 4
Procedure: as §1
Total glutathione concentration was determined by an enzyme recycling method.[21] Lipid peroxidation was evaluated using the lipid peroxidation (MDA) assay kit from Sigma-Aldrich, which measures the colorimetric product that results from the reaction of malondialdehyde (MDA) present in the tissue with thiobarbituric (TBA) acid. Iron content was measured in isolated mitochondria and cytosolic fractions using the iron colorimetric assay kit from BioVision following the manufacture’s protocol.

[3] = Lipophilicity, partition between 1-octanol and PBS; format: physicochemical; conditions: 1-octanol/PBS pH 7.4, shake-flask, n = 6
Procedure: The lipophilicity of ^18F-FPBT and ^18F-FPBT-Ox was determined by a conventional partition method between 1-octanol and phosphate buffered saline (PBS), pH 7.4. 1-Octanol was presaturated with PBS before use. The radiotracer (∼2 KBq) was added to a mixture of PBS (200 μL) and 1-octanol (200 μL) in a 1.5 mL Eppendorf vial (n = 6). The mixture was vigorously agitated at rt for 5 min and then centrifuged at 3000 g for 10 min. A 100 μL aliquot from each layer was drawn for measurement in a gamma counter. The LogDoct/PBS was calculated as follows: log [(cpm in the 1-octanol layer – cpm 1-octanol blank)/(cpm in the PBS layer – cpm PBS blank)].

[4] = Serum stability at 37 °C by radio-HPLC; format: in vitro ADME, rat; conditions: serum, 37 °C, up to 30 min
Procedure: ^18F-FPBT (∼3.0 MBq) in 5% ethanol in PBS (200 μL) containing sodium ascorbate (0.01 mg/mL) was incubated with rat serum (200 μL) at 37 °C for 1 min or 1 h. Subsequently, plasma proteins were precipitated from the supernatant with ice-cold acetonitrile (1.5 mL), and samples were centrifuged (3 min, 13 000 rpm). The residual activity in the pellet was <3%. The supernatant (∼2.0 MBq, 1.0 mL) was analyzed by radio-HPLC. HPLC method: ZORBAX column (300SB-C18, semipreparative 9.4 mm × 250 mm, 5 μm) using acetonitrile and water as the mobile phase, at a flow rate of 3.0 mL/min. The following gradient was used: from 50% to 90% acetonitrile in 15 min; kept at 90% acetonitrile for 10 min; from 90 to 50% acetonitrile in 5 min.
^18F-FBPT-Ox (2–4 MBq, 50 μL in 10% EtOH/PBS) was added to serum (500 μL) and incubated at 37 °C for 5, 15, and 30 min, respectively. Plasma proteins were precipitated with a 5-sulfosalicylic acid water solution (10% w/v, 1 mL) and centrifuged (3 min, 13 000 rpm). The supernatant was removed and diluted with 500 μL of DI H2O and analyzed via radio-HPLC. A control experiment was performed where ^18F-FBPT-Ox (2 MBq, 50 μL in 10% EtOH/PBS) was added to 500 μL of PBS, incubated at 37 °C for 30 min. A 5-sulfosalicylic acid water solution (10% w/v, 1 mL) was added, thoroughly mixed, then diluted with 500 μL of DI H2O, and analyzed via radio-HPLC. […]

[5] = Post-mortem biodistribution in healthy rats; format: in vivo, Wistar rats; conditions: iv; for Ex vivo biodistribution, Blood / Ex vivo biodistribution, Bone / Ex vivo biodistribution, Brain / Ex vivo biodistribution, Heart / Ex vivo biodistribution, Kidney / Ex vivo biodistribution, Large Intestine / Ex vivo biodistribution, Liver / Ex vivo biodistribution, Lung / Ex vivo biodistribution, Muscle / Ex vivo biodistribution, Small Intestine / Ex vivo biodistribution, Spleen / Ex vivo biodistribution, Urine: healthy rats, mean ± SD, n = 3
Procedure: Wistar rats (male, 319 ± 20 g) were injected intravenously via the tail vein with either ^18F-FPBT (1.0 ± 0.4 MBq) or ^18F-FPBT-Ox (1.1 ± 0.5 MBq). The animals were sacrificed by cervical dislocation at 1, 5, or 30 min postinjection (n = 3/group). Organs and tissues of interest were harvested and weighed, and the radioactivity was measured in a gamma counter. Organ uptake was calculated as the percentage injected dose per gram of tissue mass (% ID/g). Data are reported as mean ± SD.

[6] = In vivo blood stability of 18F-FPBT-Ox; set-up: species or system Wistar rats; conditions: rats, plasma radio-HPLC with gamma counting, n = 2
Procedure: Wistar rats (male, 320 ± 20 g) were intravenously injected with ^18F-FPBT-Ox (∼15 MBq). The animals were sacrificed by cervical dislocation at 30 min postinjection (n = 2). Blood samples were collected in heparin-coated tubes. After centrifugation (5 min, 13 000 rpm), the plasma (∼1 mL) was separated. Plasma proteins were subsequently precipitated with 5-sulfosalicylic acid water solution (10% w/v, 1.5 mL) and centrifuged (5 min, 13,000 rpm). The supernatant was removed and diluted with 500 μL of DI H2O and analyzed via radio-HPLC. HPLC method: ZORBAX column (300SB-C18, semipreparative 9.4 mm × 250 mm, 5 μm). Solvent A: H2O. Solvent B: MeCN. Flow rate: 3.0 mL/min; 0–5 min, 0% of B; 5–20 min, 0–50% of B; 20–30 min, 50–0% of B. HPLC eluent was collected every minute in 30 vials separately and submitted to gamma counting. The counts per minute in each vial were plotted against the corresponding time point.

## COc1cccc2c1C(=O)c1c(O)c3c(c(O)c1C2=O)C[C@@](O)(C(=O)CO)C[C@@H]3O[C@H]1C[C@H](N)[C@H](O)[C@H](C)O1 [doxorubicin]
[1]; doxorubicin 30 mg/kg cumulative dose by 7 day osmotic pump, implantation to day 7, n = 6
  Body weight decrease: 16.2 ± 8.9%
[1]; doxorubicin 30 mg/kg cumulative dose by osmotic pump, echocardiography
  Reduction of left ventricular ejection fraction at day 6 compared to baseline at day 0: 15%
[1]; echocardiography
  Left ventricular ejection fraction compared to time-matched vehicle controls at day 6: cannot detect the statistical difference
[2]
  Cardiac oxidative stress biomarkers (glutathione, maldonaldehyde, mitochondrial iron, cytosolic iron) compared to saline control group: marginally higher

## [18F]CCC[n+]1c(-c2ccccc2)sc2ccccc21 [^18F-FPBT-Ox]
[3]
  LogD: −1.00 ± 0.04 and ~−1
[4]
  Serum stability (in words): excellent serum stability
[5]; healthy Wistar rats
  Route of clearance / excretion, in words: quickly cleared by the kidneys and excreted through the urine
  Uptake by major organs (brain, heart, lung, spleen), in words: significantly reduced uptake
[5]; 1 min
  Ex vivo biodistribution, Blood: 0.36 ± 0.12 % ID/g
  Ex vivo biodistribution, Bone: 0.16 ± 0.14 % ID/g
  Ex vivo biodistribution, Brain: 0.23 ±0.19 % ID/g
  Ex vivo biodistribution, Heart: 0.39 ± 0.25 % ID/g
  Ex vivo biodistribution, Kidney: 4.22 ± 0.20 % ID/g
  Ex vivo biodistribution, Large Intestine: 0.12 ± 0.07 % ID/g
  Ex vivo biodistribution, Liver: 1.49 ± 0.65 % ID/g
  Ex vivo biodistribution, Lung: 0.31 ±0.05 % ID/g
  Ex vivo biodistribution, Muscle: 0.06 ± 0.02 % ID/g
  Ex vivo biodistribution, Small Intestine: 0.28 ± 0.20 % ID/g
  Ex vivo biodistribution, Spleen: 0.26 ± 0.13 % ID/g
  Ex vivo biodistribution, Urine: 1.39 ± 1.21 % ID/g
[5]; 5 min
  Ex vivo biodistribution, Blood: 0.15 ± 0.08 % ID/g
  Ex vivo biodistribution, Bone: 0.09 ± 0.03 % ID/g
  Ex vivo biodistribution, Brain: 0.14 ± 0.11 % ID/g
  Ex vivo biodistribution, Heart: 0.18 ± 0.06 % ID/g
  Ex vivo biodistribution, Kidney: 1.15 ± 0.75 % ID/g
  Ex vivo biodistribution, Large Intestine: 0.10 ± 0.04 % ID/g
  Ex vivo biodistribution, Liver: 1.17 ± 0.37 % ID/g
  Ex vivo biodistribution, Lung: 0.21 ± 0.05 % ID/g
  Ex vivo biodistribution, Muscle: 0.05 ± 0.02 % ID/g
  Ex vivo biodistribution, Small Intestine: 1.59 ± 1.93 % ID/g
  Ex vivo biodistribution, Spleen: 0.11 ± 0.04 % ID/g
  Ex vivo biodistribution, Urine: 9.29 ± 3.02 % ID/g
[5]; 30 min
  Ex vivo biodistribution, Blood: 0.09 ± 0.04 % ID/g
  Ex vivo biodistribution, Bone: 0.12 ± 0.06 % ID/g
  Ex vivo biodistribution, Brain: 0.07 ± 0.07 % ID/g
  Ex vivo biodistribution, Heart: 0.11 ± 0.06 % ID/g
  Ex vivo biodistribution, Kidney: 0.59 ± 0.31 % ID/g
  Ex vivo biodistribution, Large Intestine: 0.05 ± 0.04 % ID/g
  Ex vivo biodistribution, Liver: 0.90 ± 0.59 % ID/g
  Ex vivo biodistribution, Lung: 0.12 ± 0.07 % ID/g
  Ex vivo biodistribution, Muscle: 0.03 ± 0.00 % ID/g
  Ex vivo biodistribution, Small Intestine: 0.63 ± 0.64 % ID/g
  Ex vivo biodistribution, Spleen: 0.07 ± 0.05 % ID/g
  Ex vivo biodistribution, Urine: 15.80 ± 12.98 % ID/g
[6]
  Time stable in blood post IV injection: at least 30 min
